Literature values as cited in patent publication US12037433B2, “(Co)polymers of hydrophobic monomers and methods of making and use thereof” (BASF SE, priority 2018, dated 2024).

What was measured:
[1] = for solubility in water, measured at 20° C.: additional hydrophobic monomers

Row | SMILES | Water Solubility at 20° C. [1] | Partitioning Coefficient n-octanol/water [log Kow at 25° C.] | solubility in water, measured at 20° C. [1]
1 | C=CC(=O)OCCCCCCCCCCCCCCCCC [Heptadecyl acrylate (C17 A), Heptadecyl acrylate] | 40 µg/mL | 9.2 | –
2 | C=C(C)C(=O)OCCCCCCCCCCCC [Lauryl Methacrylate (LMA), Lauryl Methacrylate] | 30 µg/mL | 6.45 | –
3 | C=C(C)C(=O)OCCCCCCCCCCCCCCCCC [Heptadecyl methacrylate (C17 MA), Heptadecyl methacrylate] | 50 µg/mL | 6.5 | –
4 | C=C(C)C(=O)OCCCCCCCCCCCCCCCCCC [Stearyl Methacrylate (SMA), Stearyl Methacrylate] | – | 9.62 | –
5 | C=CC(=O)OCCCCCCCCCCCC [Lauryl Acrylate (LA), Lauryl Acrylate] | 40 µg/mL | 6.13 | –
6 | C=CC=C [butadiene] | – | – | 0.08 g/100 g water
7 | C=C(C)C(=O)OC1CCCCC1 [Cyclohexyl methacrylate (CHMA), Cyclohexyl methacrylate] | 100 µg/mL | 3.54 | –

Results, then the compound that gave them:

Row | Water Solubility at 20° C. [1] | Partitioning Coefficient n-octanol/water [log Kow at 25° C.] | solubility in water, measured at 20° C. [1] | SMILES
8 | – | 9.28 | – | C=CC(=O)OCCCCCCCCCCCCCCCCCC [Stearyl Acrylate (SA), Stearyl Acrylate]
9 | – | – | 0.08 g/100 g water | C=COC(=O)C(C)(C)C [vinyl neo-pentanoate]
10 | – | – | 0.03 g/100 g water | C=Cc1ccccc1 [styrene]
